Patent publication US20030165545A1, “Ophthalmic compositions including oil-in-water emulsions, and methods for making and using same” (Allergan, Inc., priority 2002, published 2003)
Like-named read-outs stand apart in the source and are kept apart here.

Test system: Intra Ocular Pressure
Settings: about 0.131% in a composition of Example 1
Experimental: Approximately 0.05 mL of the composition is administered directly to the eye at time 0.

`Brc1c(NC2=NCCN2)ccc2nccnc12` [5-bromo-6-(2-imidozolin-2-ylamino) quinoxaline] was tested, and the “percent change of Intra Ocular Pressure (mm Hg)” value (“percent change” for short) (1 hr after about 0.05 mL to the eye) was −10.4%, the “percent change” value (2 hr after about 0.05 mL to the eye) was −16.0% and the “percent change” value (4 hr after about 0.05 mL to the eye) was −09.5%. The “percent change” value (6 hr after about 0.05 mL to the eye) was −09.4%.
